One block for each compound: values may come before it.
Target: T1, Bcl-2 protein (Recombinant Human Bcl-2 Protein) (Homo sapiens, UniProt P10415)
T1 construct: purchased Novus Biologicals NBP2-34889
Assay: AS-MS evaluation of binding of the Example 4 mixture library (1200 compounds/well) to Bcl-2, ASMS ratio (%)
How it was run: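 A pooled 1200-compound mixture (20 nM each final) was incubated with 20 μM recombinant human Bcl-2 in pH 7.4 Tris-HCl buffer with NaCl, Tween-20 and DTT for 1 h at 23° C. in the dark. Bound ligands were separated by spin-column SEC and measured by reverse-phase LC/MS; ASMS ratio (%) was calculated against protein-free unfiltered standard and protein-free SEC blank.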

[1] = AS-MS, Example 4 mixture library, Bcl-2, replicate n = 1
[2] = AS-MS, Example 4 mixture library, Bcl-2, replicate n = 2
[3] = AS-MS, mixture of 1200 compounds/well, Bcl-2 protein, replicate n = 1
[4] = AS-MS, mixture of 1200 compounds/well, Bcl-2 protein, replicate n = 2
[5] = replicate n = 1, mixture library, value belongs to the MS peak assigned to the compound
[6] = replicate n = 2, mixture library, value belongs to the MS peak assigned to the compound
[7] = Example 4 mixture library, 1200 compounds/well, Bcl-2 protein, replicate n = 1, value belongs to the MS peak assignable to the compound
[8] = Example 4 mixture library, 1200 compounds/well, Bcl-2 protein, replicate n = 2, value belongs to the MS peak assignable to the compound

T1 sequence (P10415 whole entry): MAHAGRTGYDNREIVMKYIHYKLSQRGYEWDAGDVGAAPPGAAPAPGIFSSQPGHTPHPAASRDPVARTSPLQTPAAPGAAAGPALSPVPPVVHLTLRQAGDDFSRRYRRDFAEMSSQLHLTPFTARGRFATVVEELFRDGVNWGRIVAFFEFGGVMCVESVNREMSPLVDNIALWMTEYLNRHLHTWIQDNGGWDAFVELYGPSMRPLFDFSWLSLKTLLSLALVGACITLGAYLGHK

SMILES: CCOc1cccc(-c2csc(C(=O)N3CCN(c4ccc(C(=O)NS(=O)(=O)CCC(F)(F)F)cc4)CC3)c2)c1 [Compound B2N023-01, 4-[4-[4-(3-Ethoxyphenyl)thiophene-2-carbonyl]piperazin-1-yl]-N-(3,3,3-trifluoropropylsulfonyl)benzamide]
ASMS ratio (%) n = 1 [1]: 0.0%
ASMS ratio (%) n = 2 [2]: 0.0%

SMILES: CCOc1cccc(-c2ccc(CN3CCN(c4ccc(C(=O)NS(=O)(=O)CCC(F)(F)F)cc4)CC3)c(CC)c2)c1 [Compound B2N049-01, 4-[4-[[4-(3-Ethoxyphenyl)-2-ethylphenyl]methyl]piperazin-1-yl]-N-(3,3,3-trifluoropropylsulfonyl)benzamide]
ASMS ratio (%) n = 1 [1]: 0.0%
ASMS ratio (%) n = 2 [2]: 0.0%

SMILES: CCOc1cccc(-c2ccc(CN3CCN(c4ccc(C(=O)NS(=O)(=O)C(C)(C)C)cc4)CC3)cc2C)c1 [Compound B2L047-01, N-tert-Butylsulfonyl-4-[4-[[4-(3-ethoxyphenyl)-3-methylphenyl]methyl]piperazin-1-yl]benzamide]
ASMS ratio (%) n = 1 [5]: 0.0%
ASMS ratio (%) n = 2 [6]: 0.0%

SMILES: CCOc1cccc(-c2cc(OC)c(CN3CCN(c4ccc(C(=O)N(CC)CC)cc4)CC3)c(OC)c2)c1 [Compound B4J059-01, 4-[4-[[4-(3-Ethoxyphenyl)-2,6-dimethoxyphenyl]methyl]piperazin-1-yl]-N,N-diethylbenzamide]
ASMS ratio (%) n = 1 [7]: −0.1%
ASMS ratio (%) n = 2 [8]: −6.0%

SMILES: CCOc1cccc(C#Cc2cc(C(=O)N3CCN(c4ccc(C(=O)NS(=O)(=O)c5ccc(NCCSc6ccccc6)c(C(F)(F)F)c5)nn4)CC3)cc(C(F)(F)F)c2)c1 [Compound B2R019-01, 6-[4-[3-[2-(3-Ethoxyphenyl)ethynyl]-5-(trifluoromethyl)benzoyl]piperazin-1-yl]-N-[4-(2-phenylsulfanylethylamino)-3-(trifluoromethyl)phenyl]sulfonylpyridazine-3-carboxamide]
ASMS ratio (%) n = 1 [1]: 5.2%
ASMS ratio (%) n = 2 [2]: 14.0%

SMILES: CCOc1cncc(-c2cc(OC)c(CN3CCN(c4ccc(C(=O)NS(=O)(=O)C(C)(C)C)cc4)CC3)c(OC)c2)c1 [Compound B2L060-01]
ASMS ratio (%) n = 2 [6]: 0.0%

SMILES: CCOc1cccc(-c2cc(C(=O)N3CCN(c4ccc(C(=O)NS(=O)(=O)c5ccc(NCCSc6ccccc6)c(C(F)(F)F)c5)cc4)CC3)cc(C(F)(F)F)c2)c1 [Compound B2R039-01, 4-[4-[3-(3-Ethoxyphenyl)-5-(trifluoromethyl)benzoyl]piperazin-1-yl]-N-[4-(2-phenylsulfanylethylamino)-3-(trifluoromethyl)phenyl]sulfonylbenzamide]
ASMS ratio (%) n = 1 [1]: 9.7%
ASMS ratio (%) n = 2 [2]: −4.8%

SMILES: CCOc1cccc(-c2ccc(CN3CCN(c4ccc(C(=O)NS(=O)(=O)C(C)(C)C)cc4)CC3)c(OC)c2)c1 [Compound B2L053-01]
ASMS ratio (%) n = 1 [5]: 0.0%
ASMS ratio (%) n = 2 [6]: 0.0%

SMILES: CCOc1cncc(-c2csc(CN3CCN(c4ccc(C(=O)NS(=O)(=O)c5ccc(NCCSc6ccccc6)c(C(F)(F)F)c5)cc4)CC3)c2)c1 [Compound B2R068-01, 4-[4-[[4-(5-Ethoxypyridin-3-yl)thiophen-2-yl]methyl]piperazin-1-yl]-N-[4-(2-phenylsulfanylethylamino)-3-(trifluoromethyl)phenyl]sulfonylbenzamide]
ASMS ratio (%) n = 1 [1]: 0.0%
ASMS ratio (%) n = 2 [2]: 0.0%

SMILES: CCOc1cncc(-c2cc(C(=O)N3CCN(c4ccc(C(=O)NS(=O)(=O)c5ccc(NCCSc6ccccc6)c([N+](=O)[O-])c5)cc4)CC3)cc(C(F)(F)F)c2)c1 [Compound B2Q040-01, 4-[4-[3-(5-Ethoxypyridin-3-yl)-5-(trifluoromethyl)benzoyl]piperazin-1-yl]-N-[3-nitro-4-(2-phenylsulfanylethylamino)phenyl]sulfonylbenzamide]
ASMS ratio (%) n = 1 [7]: 3.9%
ASMS ratio (%) n = 2 [8]: 1.5%

SMILES: CCOc1cccc(C#Cc2cc(C(=O)N3CCN(c4ccc(C(=O)N(C)CC56CC7CC(CC(C7)C5)C6)nn4)CC3)cc(C(F)(F)F)c2)c1 [Compound B3A019-01, N-(1-Adamantylmethyl)-6-[4-[3-[2-(3-ethoxyphenyl)ethynyl]-5-(trifluoromethyl)benzoyl]piperazin-1-yl]-N-methylpyridazine-3-carboxamide]
ASMS ratio (%) n = 1 [3]: 2.6%
ASMS ratio (%) n = 2 [4]: −2.3%

SMILES: CCCNC(=O)c1ccc(N2CCN(C(=O)c3cc(-c4cncc(OCC)c4)cc(C(F)(F)F)c3)CC2)nn1 [Compound B1M018-01]
ASMS ratio (%) n = 1 [3]: 0.0%
ASMS ratio (%) n = 2 [4]: 0.0%

SMILES: CCOc1cccc(-c2cc(CN3CCN(c4ccc(C(=O)NS(=O)(=O)CCC(F)(F)F)cc4)CC3)cc(OC(C)C)c2)c1 [Compound B2N057-01, 4-[4-[[3-(3-Ethoxyphenyl)-5-propan-2-yloxyphenyl]methyl]piperazin-1-yl]-N-(3,3,3-trifluoropropylsulfonyl)benzamide]
ASMS ratio (%) n = 1 [1]: 0.0%
ASMS ratio (%) n = 2 [2]: −1.8%

The remaining lines, values ahead:

ASMS ratio (%) n = 1 [3]: 0.3%
ASMS ratio (%) n = 2 [4]: 0.3%
SMILES: CCCNC(=O)c1ccc(N2CCN(C(=O)c3ccccc3C#Cc3cccc(OCC)c3)CC2)nn1 [Compound B1M007-01]

ASMS ratio (%) n = 1 [1]: 0.0%
ASMS ratio (%) n = 2 [2]: 0.1%
SMILES: CCOc1cncc(-c2ccccc2CN2CCN(c3ccc(C(=O)NS(=O)(=O)CCC(F)(F)F)nn3)CC2)c1 [Compound B2N072-01, 6-[4-[[2-(5-Ethoxypyridin-3-yl)phenyl]methyl]piperazin-1-yl]-N-(3,3,3-trifluoropropylsulfonyl)pyridazine-3-carboxamide]

ASMS ratio (%) n = 1 [1]: 0.0%
ASMS ratio (%) n = 2 [2]: 2.8%
SMILES: CCOc1cncc(-c2cc(CN3CCN(c4ccc(C(=O)NS(=O)(=O)C(C)(C)C)nn4)CC3)cc(C(F)(F)F)c2)c1 [Compound B2L088-01]

ASMS ratio (%) n = 1 [1]: 0.0%
ASMS ratio (%) n = 2 [2]: 0.0%
SMILES: CCOc1cccc(-c2cc(CN3CCN(c4ccc(C(=O)NS(=O)(=O)C(C)(C)C)nn4)CC3)cc(OCC)c2)c1 [Compound B2L081-01, N-tert-Butylsulfonyl-6-[4-[3-ethoxy-5-(3-ethoxyphenyl)phenyl]methyl]piperazin-1-yllpyridazine-3-carboxamide]

ASMS ratio (%) n = 1 [5]: 0.0%
ASMS ratio (%) n = 2 [6]: 1.9%
SMILES: CCOc1cncc(-c2cc(CN3CCN(c4ccc(C(=O)NS(C)(=O)=O)nn4)CC3)cc(OCC)c2)c1 [Compound B2I082-01, 6-[4-[[3-Ethoxy-5-(5-ethoxypyridin-3-yl)phenyl]methyl]piperazin-1-yl]-N-methylsulfonylpyridazine-3-carboxamide]

ASMS ratio (%) n = 1 [5]: 0.0%
ASMS ratio (%) n = 2 [6]: −1.0%
SMILES: CCOc1cccc(C#Cc2ccccc2C(=O)N2CCN(c3ccc(C(=O)NS(=O)(=O)C(C)(C)C)nn3)CC2)c1 [Compound B2L007-01]

ASMS ratio (%) n = 1 [1]: 0.0%
ASMS ratio (%) n = 2 [2]: 0.0%
SMILES: CCOc1cccc(-c2cc(CN3CCN(c4ccc(C(=O)NS(=O)(=O)CCC(F)(F)F)nn4)CC3)cc(OCC)c2)c1 [Compound B2N081-01]

ASMS ratio (%) n = 1 [5]: 2.6%
ASMS ratio (%) n = 2 [6]: 0.3%
SMILES: CCOc1cncc(-c2ccc(CN3CCN(c4ccc(C(=O)NS(C)(=O)=O)nn4)CC3)c3ccccc23)c1 [Compound B2I092-01, 6-[4-[[4-(5-Ethoxypyridin-3-yl)naphthalen-1-yl]methyl]piperazin-1-yl]-N-methylsulfonylpyridazine-3-carboxamide]

ASMS ratio (%) n = 1 [1]: 15.8%
ASMS ratio (%) n = 2 [2]: 13.5%
SMILES: CCOc1cncc(-c2ccccc2CCC(=O)N2CCN(c3ccc(C(=O)NS(=O)(=O)c4ccc(NCCSc5ccccc5)c(C(F)(F)F)c4)nn3)CC2)c1 [Compound B2R012-01, 6-[4-[3-[2-(5-Ethoxypyridin-3-yl)phenyl]propanoyl]piperazin-1-yl]-N-[4-(2-phenylsulfanylethylamino)-3-(trifluoromethyl)phenyl]sulfonylpyridazine-3-carboxamide]

ASMS ratio (%) n = 1 [5]: 0.0%
ASMS ratio (%) n = 2 [6]: 0.0%
SMILES: CCOc1cccc(-c2ccc(CN3CCN(c4ccc(C(=O)NS(C)(=O)=O)nn4)CC3)c(CC)c2)c1 [Compound B2I075-01, 6-[4-[[4-(3-Ethoxyphenyl)-2-ethylphenyl]methyl]piperazin-1-yl]-N-methylsulfonylpyridazine-3-carboxamide]

ASMS ratio (%) n = 1 [5]: 0.0%
ASMS ratio (%) n = 2 [6]: 0.0%
SMILES: CCOc1cncc(-c2ccc(C(C)N3CCN(c4ccc(C(=O)NS(C)(=O)=O)cc4)CC3)cc2)c1 (centres unmarked) [Compound B2I098-01, 4-[4-[1-[4-(5-Ethoxypyridin-3-yl)phenyl]ethyl]piperazin-1-yl]-N-methylsulfonylbenzamide]

ASMS ratio (%) n = 1 [1]: 0.0%
ASMS ratio (%) n = 2 [2]: 0.0%
SMILES: CCOc1cncc(-c2csc(C(=O)N3CCN(c4ccc(C(=O)NS(=O)(=O)CCC(F)(F)F)nn4)CC3)c2)c1 [Compound B2N002-01, 6-[4-[4-(5-Ethoxypyridin-3-yl)thiophene-2-carbonyl]piperazin-1-yl]-N-(3,3,3-trifluoropropylsulfonyl)pyridazine-3-carboxamide]

ASMS ratio (%) n = 1 [1]: −3.5%
ASMS ratio (%) n = 2 [2]: 1.8%
SMILES: CCOc1cccc(-c2ccc(CN3CCN(c4ccc(C(=O)NS(=O)(=O)c5ccc(NCCSc6ccccc6)c(C(F)(F)F)c5)nn4)CC3)c3ccccc23)c1 [Compound B2R091-01, 6-[4-[[4-(3-Ethoxyphenyl)naphthalen-1-yl]methyl]piperazin-1-yl]-N-[4-(2-phenylsulfanylethylamino)-3-(trifluoromethyl)phenyl]sulfonylpyridazine-3-carboxamide]

ASMS ratio (%) n = 1 [3]: −1.6%
ASMS ratio (%) n = 2 [4]: 0.9%
SMILES: CCCNC(=O)c1ccc(N2CCN(Cc3ccc(-c4cncc(OCC)c4)c(C)c3)CC2)nn1 [Compound B1M074-01]

Reference: patent US20250154686A1, “COMPOUND LIBRARY” (CHUGAI SEIYAKU KABUSHIKI KAISHA, priority 2021, published 2025)
